From patent publication US20190270733A1, “Quinoline and Isoquinoline Based HDAC Inhibitors and Methods of Use Thereof” (Reaction Biology Corp., priority 2018, published 2019)

Legend:
Human HDAC1 = target: T1, Human HDAC1 (Homo sapiens, UniProt Q13547); test: Biochemical HDAC assay, HDAC1; conditions: incubation time 120 min
T1 construct: full-length with a C-terminal His-tag and a C-terminal FLAG-tag; His-tag (C); FLAG-tag (C); made in house
Method: Human HDAC1 (GenBank Accession No. NM_004964), full-length with a C-terminal His-tag and a C-terminal FLAG-tag, MW=56 kDa, was expressed in a baculovirus expression system.
(§1) • I. Compound handling: Testing compounds were dissolved in 100% DMSO to a specific concentration. The serial dilution was conducted by epMotion 5070 in DMSO. • II. HDAC reaction buffer: 50 mM Tris-HCl, pH8.0, 137 mM NaCl, 2.7 mM KCl, and 1 mM MgCl2, Added fresh: 1 mg/ml BSA, 1% DMSO. • III. Substrate: Fluorogenic HDAC General Substrate for HDAC1, 2, 3, 6, 10, 11 ans Sirt1, 2 and 3: Arg-His-Lys-Lys(Ac); HDAC8 only substrate: Arg-His-Lys(Ac)-Lys(Ac); Class2A Substrate (HDAC4, 5, 7 and 9): Acetyl-Lys(trifluoroacetyl)-AMC; Sirt5 substrate: Ac-Lys(succinyl)-AMC. • IV. General Reaction Procedure: (Standard IC50 determination) • a. Delivered 2× enzyme in wells of reaction plate except No Enzyme (No En) control wells. Add buffer in No En wells. • b. Delivered compounds in 100% DMSO into the enzyme mixture by Acoustic technology (Echo550; nanoliter range). Spin down and pre-incubation. • c. Delivered 2× Substrate Mixture (Fluorogenic HDAC Substrate and co-factor (500 μM of Nicotinamide adenine dinucleotide (NAD^+) in all Sirt assay) in all reaction wells to initiate the reaction. Spin and shake. • d. Incubated for 1-2 hr. at 30° C. with seal. • e. Added Developer with Trichostatin A (or TMP269 or NAD^+) to stop the reaction and to generate fluorescent color. • f. Fluorescence was read (excitatory, 360; emission, 460) using the EnVision Multilabel Plate Reader (Perkin Elmer) • g. Endpoint reading was taken for analysis after the development reaches plateau. • V. Data Analysis: The percentages of enzyme activity (relative to DMSO controls) and IC50 values were calculated using the GraphPad Prism 4 program based on a sigmoidal dose-response equation.
(§2) Compounds with indicated doses was tested in the biochemical assays of HDAC1, HDAC2, HDAC3, HDAC4, HDAC5, HDAC6, HDAC7, HDAC8, HDAC9, HDAC10, or HDAC11 enzyme. The incubation time in HDAC1/2 assays are 120 min, and that for other HDACs are 10 min. The curve fit and IC50 values were calculated using the GraphPad Prism 4 program based on a sigmoidal dose-response equation.

Human HDAC2 = target: T2, Human HDAC2 (Homo sapiens, UniProt Q92769); test: Biochemical HDAC assay, HDAC2; conditions: incubation time 120 min
T2 construct: full-length with a C-terminal His-tag; His-tag (C); made in house
Method: Human HDAC2 (GenBank Accession No. NM_001527), full-length with a C-terminal His-tag, MW=56 kDa, was expressed in a baculovirus expression system.
as §1, §2

[1] = target: T3, Complex of human HDAC3 and human NCOR2 (Homo sapiens, UniProt O15379); test: Biochemical HDAC assay, HDAC3; conditions: incubation time 10 min
T3 construct: full-length with a C-terminal His tag; His tag (C); made in house
Method: Complex of human HDAC3 (GenBank Accession No. NM_003883), full-length with a C-terminal His tag, MW=49.7 kDa, and human NCOR2 (amino acid 395-489) (GenBank Accession No. NM_006312), N-terminal GST tag, MW=37.6 kDa, was co-expressed in a baculovirus expression system.
as §1, §2

Recombinant human HDAC6 = target: T4, Recombinant human HDAC6 (Homo sapiens, UniProt Q9UBN7); test: Biochemical HDAC assay, HDAC6; conditions: incubation time 10 min
T4 construct: full-length, MW=180 kDa; GST tag (N); made in house; host or cells: Sf9 insect cells (baculovirus)
T4 sequence (Q9UBN7 1-1215): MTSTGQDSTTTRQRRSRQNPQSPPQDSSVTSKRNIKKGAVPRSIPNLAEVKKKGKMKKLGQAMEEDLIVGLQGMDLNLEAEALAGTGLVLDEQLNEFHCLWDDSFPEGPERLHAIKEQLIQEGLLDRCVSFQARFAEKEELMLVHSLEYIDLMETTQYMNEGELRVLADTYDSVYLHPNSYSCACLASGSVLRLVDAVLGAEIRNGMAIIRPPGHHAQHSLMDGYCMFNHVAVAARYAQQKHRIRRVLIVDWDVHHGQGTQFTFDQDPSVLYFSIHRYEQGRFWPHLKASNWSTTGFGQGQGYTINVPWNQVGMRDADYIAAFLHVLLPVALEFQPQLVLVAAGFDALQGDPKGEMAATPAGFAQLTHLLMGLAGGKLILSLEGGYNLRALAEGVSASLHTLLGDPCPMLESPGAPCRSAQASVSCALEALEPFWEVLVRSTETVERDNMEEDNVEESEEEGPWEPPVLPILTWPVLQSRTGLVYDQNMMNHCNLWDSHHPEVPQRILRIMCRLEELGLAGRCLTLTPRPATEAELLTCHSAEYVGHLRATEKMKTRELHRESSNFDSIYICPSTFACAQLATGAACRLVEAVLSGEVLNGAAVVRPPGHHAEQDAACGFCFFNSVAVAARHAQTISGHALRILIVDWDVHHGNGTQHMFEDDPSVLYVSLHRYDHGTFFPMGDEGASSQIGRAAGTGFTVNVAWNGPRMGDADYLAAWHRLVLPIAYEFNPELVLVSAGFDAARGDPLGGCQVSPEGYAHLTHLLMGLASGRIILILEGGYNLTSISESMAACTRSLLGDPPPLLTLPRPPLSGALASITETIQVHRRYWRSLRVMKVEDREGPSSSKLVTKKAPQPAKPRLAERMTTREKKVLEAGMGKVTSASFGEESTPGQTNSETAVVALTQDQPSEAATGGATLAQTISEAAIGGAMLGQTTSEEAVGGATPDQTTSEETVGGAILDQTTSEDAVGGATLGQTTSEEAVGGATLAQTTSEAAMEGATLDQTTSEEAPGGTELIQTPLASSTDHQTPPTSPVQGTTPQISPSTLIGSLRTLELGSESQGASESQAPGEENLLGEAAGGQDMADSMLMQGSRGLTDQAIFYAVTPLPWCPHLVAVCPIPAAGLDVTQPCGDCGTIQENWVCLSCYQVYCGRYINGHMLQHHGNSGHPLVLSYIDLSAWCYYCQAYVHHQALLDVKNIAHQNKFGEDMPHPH
Method: Recombinant human HDAC6 (GenBank Accession No. BC069243), full-length, MW=180 kDa, was expressed by baculovirus in Sf9 insect cells using an N-terminal GST tag.
as §1, §2

Human HDAC8 = target: T5, Human HDAC8 (Homo sapiens, UniProt Q9BY41); test: Biochemical HDAC assay, HDAC8; conditions: incubation time 10 min
T5 construct: full-length with a C-terminal His tag; His tag (C); made in house
T5 sequence (Q9BY41 1-377): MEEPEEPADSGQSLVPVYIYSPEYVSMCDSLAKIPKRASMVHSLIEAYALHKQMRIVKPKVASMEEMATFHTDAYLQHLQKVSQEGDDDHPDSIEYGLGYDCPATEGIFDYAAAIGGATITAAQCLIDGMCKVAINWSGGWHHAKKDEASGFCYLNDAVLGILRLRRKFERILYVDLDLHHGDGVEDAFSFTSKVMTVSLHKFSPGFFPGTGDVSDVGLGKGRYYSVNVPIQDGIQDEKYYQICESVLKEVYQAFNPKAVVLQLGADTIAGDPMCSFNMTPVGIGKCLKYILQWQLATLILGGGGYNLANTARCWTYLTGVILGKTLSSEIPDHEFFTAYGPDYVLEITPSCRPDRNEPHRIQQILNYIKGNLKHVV
Method: Human HDAC8 (GenBank Accession No. NM_018486), full-length with a C-terminal His tag, MW=46.4 kDa, was expressed in a baculovirus expression system.
as §1, §2

T3 sequence (O15379 whole entry): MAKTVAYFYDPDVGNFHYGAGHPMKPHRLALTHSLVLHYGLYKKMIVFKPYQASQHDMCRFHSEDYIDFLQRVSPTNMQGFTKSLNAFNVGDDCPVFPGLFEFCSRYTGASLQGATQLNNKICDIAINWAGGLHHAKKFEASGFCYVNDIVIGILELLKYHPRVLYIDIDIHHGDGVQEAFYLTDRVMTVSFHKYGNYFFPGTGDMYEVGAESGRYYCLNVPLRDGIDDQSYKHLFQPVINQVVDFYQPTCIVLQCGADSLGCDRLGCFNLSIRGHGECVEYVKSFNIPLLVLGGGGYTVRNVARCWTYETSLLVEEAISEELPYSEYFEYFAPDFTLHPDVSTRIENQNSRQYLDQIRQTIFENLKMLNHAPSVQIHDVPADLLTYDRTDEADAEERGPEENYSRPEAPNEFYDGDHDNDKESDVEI
T3 sequence (Q9Y618 395-489 partner limits assumed): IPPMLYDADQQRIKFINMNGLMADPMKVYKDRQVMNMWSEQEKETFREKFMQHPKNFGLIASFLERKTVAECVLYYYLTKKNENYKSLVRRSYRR
T1 sequence (Q13547 whole entry): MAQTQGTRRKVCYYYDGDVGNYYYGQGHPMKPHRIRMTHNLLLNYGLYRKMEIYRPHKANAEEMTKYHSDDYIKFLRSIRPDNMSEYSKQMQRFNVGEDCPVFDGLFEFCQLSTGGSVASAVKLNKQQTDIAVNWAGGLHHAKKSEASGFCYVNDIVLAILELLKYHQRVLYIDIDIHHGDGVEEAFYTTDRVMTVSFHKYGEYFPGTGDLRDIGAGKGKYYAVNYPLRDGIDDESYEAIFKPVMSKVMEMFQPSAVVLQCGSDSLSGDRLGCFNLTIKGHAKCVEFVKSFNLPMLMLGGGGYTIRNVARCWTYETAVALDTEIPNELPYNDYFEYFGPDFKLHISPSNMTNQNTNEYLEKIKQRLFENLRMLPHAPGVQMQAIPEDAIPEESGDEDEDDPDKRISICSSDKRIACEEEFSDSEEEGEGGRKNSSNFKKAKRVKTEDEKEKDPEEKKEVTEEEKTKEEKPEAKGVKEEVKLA
T2 sequence (Q92769 whole entry): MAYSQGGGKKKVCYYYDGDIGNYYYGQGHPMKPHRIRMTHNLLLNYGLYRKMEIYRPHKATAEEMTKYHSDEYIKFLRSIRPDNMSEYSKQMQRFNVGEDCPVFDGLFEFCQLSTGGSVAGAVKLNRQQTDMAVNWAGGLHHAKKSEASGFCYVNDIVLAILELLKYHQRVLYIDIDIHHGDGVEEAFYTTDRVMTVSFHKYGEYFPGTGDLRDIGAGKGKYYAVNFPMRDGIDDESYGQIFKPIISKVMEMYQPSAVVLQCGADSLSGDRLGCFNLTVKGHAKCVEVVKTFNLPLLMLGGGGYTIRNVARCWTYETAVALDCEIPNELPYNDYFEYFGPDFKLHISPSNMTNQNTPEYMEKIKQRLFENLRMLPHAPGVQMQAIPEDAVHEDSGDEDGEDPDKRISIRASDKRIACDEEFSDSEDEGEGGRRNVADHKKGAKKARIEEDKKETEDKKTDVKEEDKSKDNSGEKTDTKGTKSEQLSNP

Nc1ccc(-c2cccs2)cc1NC(=O)c1ccc2c(c1)CCNC2=O [Example 1, N-(2-amino-5-(thiophen-2-yl)phenyl)-1-oxo-1,2,3,4-tetrahydroisoquinoline-6-carboxamide]
IC50 (Human HDAC1): 1.8 nM
IC50 (Human HDAC2): 24 nM
IC50 [1]: > 10000 nM
IC50 (Recombinant human HDAC6): > 10000 nM
IC50 (Human HDAC8): > 10000 nM

Nc1ccc(-c2cccs2)cc1NC(=O)c1ccc2c(c1)CCN(CC1CCOCC1)C2=O [Example 2, N-(2-amino-5-(thiophen-2-yl)phenyl)-1-oxo-2-((tetrahydro-2H-pyran-4-yl)methyl)-1,2,3,4-tetrahydroisoquinoline-6-carboxamide]
IC50 (Human HDAC1): 1.9 nM
IC50 (Human HDAC2): 23 nM
IC50 [1]: > 10000 nM
IC50 (Recombinant human HDAC6): > 10000 nM
IC50 (Human HDAC8): > 10000 nM

Nc1ccc(-c2cccs2)cc1NC(=O)c1ccc2c(c1)CCN(C(=O)C1CCOCC1)C2 [Example 3, N-(2-amino-5-(thiophen-2-yl)phenyl)-2-(tetrahydro-2H-pyran-4-carbonyl)-1,2,3,4-tetrahydroisoquinoline-6-carboxamide]
IC50 (Human HDAC1): 2.6 nM
IC50 (Human HDAC2): 25 nM
IC50 [1]: > 10000 nM
IC50 (Recombinant human HDAC6): > 10000 nM
IC50 (Human HDAC8): > 10000 nM

Nc1ccc(-c2cccs2)cc1NC(=O)c1ccc2c(c1)CCN(C(=O)c1cccnc1)C2 [Example 4, N-(2-amino-5-(thiophen-2-yl)phenyl)-2-nicotinoyl-1,2,3,4-tetrahydroisoquinoline-6-carboxamide]
IC50 (Human HDAC1): 3 nM
IC50 (Human HDAC2): 39 nM
IC50 [1]: > 10000 nM
IC50 (Recombinant human HDAC6): > 10000 nM
IC50 (Human HDAC8): > 10000 nM
